Each structure is given as a SMILES string. Values joined by “and” are separate entries in the source; they are usually repeats but may differ in a detail not shown here. Equal entries are not always repeated. Active and inactive are the calls of the source. The rule behind the calls is not given here. Bounds are passed on as bounds.

The nature of the test: non-covalent RecA intein splicing inhibitors, dose response, biochemical, cell-free, fluorescence, secondary screen (AID 449750).
As for `O=C1CCN(N=Nc2cccc(Cl)c2)N1`, the AC50 was > 38 µM (inactive).
The value for `Cc1ccc(NC(=O)c2nc(S(=O)(=O)Cc3ccccc3C)ncc2Cl)cc1C` was > 38 µM (inactive).
The value for `CCCCCCCCCCOC(=O)Cn1c(COc2ccccc2OC)[n+](C)c2ccccc21` was 7.46 µM; that for `O=C1C2=C(c3ccccc31)[N+](=O)C1CCCCC1N2[O-]` (centres undefined) was 18.3 µM.
The value for `CNC(=O)c1nnsc1S(=O)(=O)c1ccc(Cl)cc1` was > 38 µM (inactive); that for `Cc1[nH]n(-c2ccccc2)c(=O)c1C(c1cccc([N+](=O)[O-])c1)c1c(C)[nH]n(-c2ccccc2)c1=O` was 8.53 µM.
As to `CCOc1cc(/C=C2\C(=N)N3N=C(S(=O)(=O)CC)SC3=NC2=O)ccc1OC(=O)c1ccco1`, the AC50 is > 38 µM (inactive).
In the case of `CCN(CC)S(=O)(=O)c1cc(NC(=O)Cn2ncc(Cl)c(Cl)c2=O)ccc1C` it was 38.7 µM; in that of `CCc1ccc(S(=O)(=O)Nc2ccc(O)c3ccccc23)cc1`, 0.535 µM; in that of `O=C(CCl)N(Cc1cc(=O)[nH]c2ccccc12)c1ccccc1`, 8.46 µM.
The value for `O=c1oc2cc(Oc3c([N+](=O)[O-])cc(C(F)(F)F)cc3[N+](=O)[O-])ccc2c2c1CCCC2` was > 38 µM (inactive); that for `Cc1ccccc1Nc1cc2ccccc2c(=O)[nH]1` was 1.54 µM.
In the case of `Cc1nn(-c2ccccc2)c2c1C(c1ccncc1)C(C#N)=C(N)O2` (centres undefined) it was > 38 µM (inactive).
In the case of `Cc1cc(=O)n(CCCc2ccccc2)[nH]1`, the AC50 is 36.5 µM.
In the case of `CC(C)c1[nH]nc2c1C(c1cccs1)C(C#N)=C(N)O2` (centres undefined) it was > 38 µM (inactive); in that of `Cc1nn(-c2ccccc2)c(Cl)c1/C=C1\SC(=S)N(CCCCCC(=O)O)C1=O`, 14.8 µM.
In the case of `CCOC(=O)CSCC(=O)N1N=C(c2cccs2)CC1c1ccc(F)cc1` (centres undefined) it was 16.9 µM; in that of `Cc1ccc(NC(=O)c2cnc(SCC(=O)NCC3CCCO3)n(C)c2=O)cc1` (centres undefined), > 38 µM (inactive).
In the case of `O=C(Oc1ccccc1N1C(=O)CCC1=O)c1ccco1` it was > 38 µM (inactive); in that of `CC(C)(C)OC(=O)N1CC=C2C(C#N)=C(N)C(C#N)(C#N)C(c3cccs3)C2C1` (centres undefined), > 12 µM (inactive); in that of `CSc1nc(-c2ccc(Cl)cc2)nn1C(=O)c1ccco1`, > 38 µM (inactive).
For `CCOC(=O)/C(C#N)=C\c1ccc(O)c(OC)c1`, the AC50 is > 38 µM (inactive).
The value for `Cc1cc2[nH]ncc2cc1NC(=S)NC(=O)c1ccccc1` was > 38 µM (inactive); that for `Cc1cc(C(=O)CCl)c(C)n1CCc1ccc(Cl)cc1` was 4.99 µM; that for `CCOC(=O)C1CCC2(CC1)C(C#N)=C(N)Oc1n[nH]c(C)c12` (centres undefined) was > 38 µM (inactive).
In the case of `COc1cc(C2C(C#N)=C(N)Oc3c2c(-c2ccccc2)nn3-c2ccccc2)cc(OC)c1OC` (centres undefined) it was 29.9 µM; in that of `O=S(=O)(CCSc1ccccn1)c1nc2ccccc2s1`, > 38 µM (inactive).
For `COC(=O)Cc1c(C)[nH]n(-c2cc(Cl)cc(Cl)c2)c1=O`, the AC50 is > 38 µM (inactive).
In the case of `CC1=NN(c2ccc(Cl)cc2)C(=O)C1` it was 3.71 µM; in that of `CCOC(=O)C(Nc1ccc2ccccc2c1)C(=O)OCC`, 38.5 µM.
Consider `COc1ccc(NC(=O)Nc2ccc(O)c3ccccc23)cc1`, for which the AC50 was 39.3 µM.
In the case of `O=C(Oc1ccc(N2C(=O)CCC2=O)cc1)c1ccco1` it was 0.433 µM.
`O=C(N/N=C/c1ccc([N+](=O)[O-])o1)c1ccccc1NS(=O)(=O)c1cccs1`: the AC50 is > 38 µM (inactive).
In the case of `CC1=C(CC(=O)c2ccc(Cl)cc2)C(=O)c2ccccc2C1=O`, the AC50 was 16.3 µM.
For the compound `Cc1cccc(CN2CCN(C(=O)CCl)CC2)c1`, the AC50 is 34.1 µM.
`O=S(=O)(Nc1ccc(O)c2ccccc12)c1ccc(F)cc1`: the AC50 was 0.377 µM.
In the case of `c1ccc(CCNCc2cccs2)cc1` it was > 38 µM (inactive); in that of `OCC[n+]1c2ccccc2nc2ccc(N3CCOCC3)cc21`, 26.5 µM; in that of `Cc1cccc(C(=O)c2cnc3ccccc3c2-c2ccccc2)c1`, 14.4 µM.
The value for `CCOC(=O)c1cc2cc3ccccc3cc2[nH]1` was > 38 µM (inactive); that for `Cn1cnc([N+](=O)[O-])c1Oc1cccc2ccccc12` was > 38 µM (inactive).
In the case of `O=C1C(Cl)=C(Nc2ccc(O)cc2)C(=O)c2ccccc21` it was 2.7 µM; in that of `Cc1ccc(N(C(=O)CCl)C(C(=O)NC2CCCCC2)c2cccnc2)cc1C` (centres undefined), 1 µM; in that of `CCCCCCCCCCCCCCCCn1cc[n+](C)c1`, 7.12 µM and 7.27 µM.
`O=c1cc(-c2ccc(F)cc2)[nH][nH]1`: the AC50 is 17.2 µM.
For `CCOC(=O)c1c(NC(=O)/C=C/C(=O)O)sc(C)c1-c1ccc(F)cc1`, the AC50 is 18 µM.
The value for `Nc1c(-c2ccccc2)c(CSc2nc3ccccc3[nH]2)nn1-c1cccc(Cl)c1` was > 38 µM (inactive).
For `CCCC1C(C#N)=C(N)Oc2n[nH]c(C(C)(C)C)c21` (centres undefined), the AC50 was 1.7 µM.
In the case of `CCOC(=O)/C=c1\s/c(=C(\C#N)C(N)=O)n(-c2ccccc2)c1=O` it was > 38 µM (inactive).
Turning to `O=C(NCc1cccnc1)/C(=C\c1ccc(-c2cccc(Cl)c2)o1)S(=O)(=O)c1ccccc1`, the AC50 is 26.9 µM.
Regarding `Cc1ccccc1CS(=O)(=O)c1nnc([C@H](CC(C)C)NC(=O)OC(C)(C)C)o1`, the AC50 was > 38 µM (inactive).
In the case of `CCC(C)N(CC(=O)Nc1cccc(C)c1C)C(=O)CCl` (centres undefined) it was 30.2 µM; in that of `O=C1c2ccccc2-c2onc3ccc(N4CCCC4)c1c23`, > 38 µM (inactive).
Turning to `CCc1cccc(CC)c1NC(=O)/C(C#N)=C/c1ccccc1C(F)(F)F`, the concentration at half-maximal activity (AC50) is 11.6 µM.
In the case of `C#CCOC(=O)c1ccccc1C(=O)n1nnc2ccccc21` it was > 38 µM (inactive); in that of `COc1cc(/C=C(\C#N)c2nc3ccccc3o2)ccc1O`, > 38 µM (inactive).
Take `Fc1ccc(Sc2nc(-c3ccccc3)nnc2C(F)(F)F)cc1`: the AC50 was > 38 µM (inactive).
In the case of `CCCCCn1c(NC(=O)c2ccco2)c(S(=O)(=O)c2ccc(C)cc2)c2nc3ccccc3nc21` it was > 38 µM (inactive); in that of `O=C(NC1C(=O)NNC1c1ccc(Cl)cc1)c1ccc(F)cc1` (centres undefined), > 38 µM (inactive).
The value for `CCOC(=O)CC1=NN(c2ccccc2)C(=O)C1` was 36 µM; that for `Cc1[nH][nH]c(=O)c1C(c1ccc(O)c(Br)c1)c1c(C)[nH][nH]c1=O` was 13.5 µM.
In the case of `COCc1[nH]nc2c1C(c1ccccc1F)C(C#N)=C(N)O2` (centres undefined), the AC50 was > 38 µM (inactive).
The value for `O=C(NC1(O)C(=O)c2ccccc2C1=O)c1ccccc1` was 9.46 µM.
In the case of `O=C(Nc1ccc(F)cc1)c1nn(-c2ccccc2)c(=O)cc1Cl`, the AC50 is 22.1 µM.
The value for `CCn1nc(C)c(C2C(C#N)=C(N)Oc3n[nH]c(C)c32)c1C` (centres undefined) was > 38 µM (inactive); that for `O=C(Nc1ccc(N2CCOCC2)cc1)Nc1ccc2nsnc2c1` was > 38 µM (inactive).
The value for `CCOc1cc(/C=C2\C(=N)N3N=C(N4CCCCC4)SC3=NC2=O)ccc1OC(=O)c1ccco1` was > 38 µM (inactive).
The value for `O=C(CCl)N(c1ccc(Cl)cc1)c1c[nH]c2ccccc12` was 0.746 µM; that for `OC(CNCCC1C=Nc2ccccc21)Cn1c2ccc(Cl)cc2c2cc(Cl)ccc21` (centres undefined) was 8.48 µM.
For `CC(=O)N(C)C1=C(N2CCOCC2)C(=O)c2ccccc2C1=O`, the AC50 is 15.7 µM.
The value for `Cc1cccc(CS(=O)(=O)c2ncc(Cl)c(C(=O)Nc3nnc(C(C)C)s3)n2)c1` was 2.13 µM; that for `NC1=C(Br)C(=O)c2ccccc2C1=O` was 13.1 µM; that for `O=C(COC(=O)C1CC(=O)N(Cc2ccco2)C1)c1ccc(OC(=O)c2ccco2)cc1` (centres undefined) was > 38 µM (inactive).
With `CS(=O)(=O)N1CCC(Oc2ccccc2C(=O)N2CCCCC2CO)CC1` (centres undefined), the AC50 is > 38 µM (inactive).
The value for `Cc1cc2nc3ccc(=[N+](C)C)cc-3sc2cc1N` was 13.1 µM.
The value for `CCCCCCCCCCOC(=O)Cn1c(COc2ccccc2)[n+](C)c2ccccc21` was 7.97 µM.
Turning to `O=C(O)CC1S/C(=N/N=C/c2ccc(-c3ccc(Cl)cc3[N+](=O)[O-])o2)NC1=O` (centres undefined), the AC50 was 4.67 µM.
The value for `CCc1nnc(NC(=O)c2nc(S(=O)(=O)Cc3ccccc3)ncc2Cl)s1` was 31.2 µM.
The value for `Cc1cccc(Cn2nnc3c2C(=O)c2ccccc2C3=O)c1` was 28.7 µM; that for `O=C(N/N=C/c1coc2ccc(Cl)cc2c1=O)c1ccc(O)cc1` was > 38 µM (inactive).
The value for `COc1cc(C2(c3ccc(O)c(OC)c3)C(=O)Nc3c(C)cc(Br)cc32)ccc1O` was 9.32 µM.
`O=C(O)c1ccccc1-c1ccccc1C(=O)Nc1ccc(-c2nc3cc(Cl)ccc3o2)cc1`: the AC50 is 9.29 µM.
In the case of `CCCc1[nH]nc2c1C(c1ccc(OCCN3CCOCC3)c(OC)c1)C(C#N)=C(N)O2` (centres undefined) it was > 38 µM (inactive); in that of `Cc1ccc(N2C(=O)C(Cl)=C(N3CCOCC3)C2=O)c(C)c1`, > 38 µM (inactive).
In the case of `Cn1c(O)c(C2=NN(C(=O)CCl)C(c3ccccc3)C2)c(=O)n(C)c1=O` (centres undefined) it was 26.2 µM; in that of `CC1=NN(c2ccc(C(=O)O)c(N)c2)C(=O)C1`, 2.87 µM; in that of `Cc1ccc(-n2[nH]c(C)c(/C=N/NC(=O)c3ccc([N+](=O)[O-])cc3)c2=O)c(C)c1`, 5.27 µM.
The value for `O=C(N/N=C/c1ccc(-c2ccccc2[N+](=O)[O-])o1)[C@H]1C[C@@H]1c1ccccc1` was 9.01 µM; that for `O=[N+]([O-])c1cc([N+](=O)[O-])c2cc3ccccc3nc2c1` was 7.29 µM; that for `CCOc1cc(/C=C2\C(=O)N(CCC#N)N=C2C)ccc1OCC(N)=O` was 12.6 µM.
Consider `COC(CN(C(=O)CCl)C(C(=O)NC1CCCC(C)C1C)c1ccc(C)cc1)OC` (centres undefined), for which the AC50 is 10.9 µM.
The value for `O=C1C=Cc2ccccc2C1=O` was 14.9 µM; that for `CC(C)(C)OC(=O)NCCc1nnc(S(=O)(=O)Cc2ccc(Cl)cc2Cl)o1` was > 38 µM (inactive).
For `O=c1[nH]cc(N=Cc2cc([N+](=O)[O-])ccc2O)c(=O)[nH]1`, the AC50 was > 38 µM (inactive).

The AC50 is the midpoint of the concentration-response curve, whichever way the signal moves.

Values taken from PubChem BioAssay AID449750 (Broad Institute, 2010).
